Values joined by “and” are separate entries in the source; they are usually repeats but may differ in a detail not shown here. Equal entries are not always repeated. “Also recorded” adds a separate entry of the source.
Experiments:
Raw 264.7 cells = assay: Cytotoxicity by resazurin reduction assay in Raw 264.7 cells; type: cell-based, mouse; settings: viability not decreased by more than 30% relative to LPS alone (ISO 10993-5), LPS 1 µg/mL 18 h
Method: Various concentrations of the test compounds, in the absence or presence of LPS, were first evaluated for cytotoxicity using the resazurin reduction assay[26]
(§1) Raw 264.7 cells were plated at a density of 3 × 10^5 cells/mL and left to stabilize for up to 24 h.
Resazurin is a redox dye used as an indicator of cellular metabolic activity for various applications, namely cell viability, proliferation and toxicity. The assay is based on the intracellular reduction of the non-fluorescent resazurin to resorufin (a fluorescent and pink coloured compound) by mitochondrial or microsomal enzymes that use NADH or NADPH as electron sources. Since only metabolically active cells can reduce the dye, the increase in fluorescence or absorbance is directly proportional to the number of viable cells[26],[50].
(§2) To select non-cytotoxic concentrations of the test compounds, the resazurin solution was added to each well to a final concentration of 50 µM, 90 min before the end of the treatment period indicated in the figure legends. Then, absorbances at 570 nm and 620 nm (reference wavelength) were read in a Biotek Synergy HT plate reader (Biotek, Winooski, VT, USA).

NOS2 [1] = assay: LPS-induced NOS2 mRNA (qRT-PCR) and protein (western blot) in Raw 264.7; type: cell-based, mouse; settings: 1 h pre-treatment, Bay 11-7082 5 μM; for LPS-induced NOS2 mRNA levels: LPS 1 µg/mL 6 h, test compounds 666 µM; for LPS-induced NOS2 protein levels: LPS 1 µg/mL 18 h
Method: Macrophage cultures were treated with 1 µg/mL LPS, for 6 h (a) or 18 h (b), following pre-treatment for 1 h with 666 µM of each test compound (a) or with the concentrations indicated in (b). […] Control cells (Ctrl) were treated with the vehicle (0.1% DMSO) in the absence of LPS. Each column represents the mean ± SEM of four independent experiments. The blots shown are representative of, at least, three independent experiments and are cropped for clarity and conciseness.
Total RNA extraction and qRT-PCR were performed as described before[52]. Briefly, total RNA was extracted using the NZYol (NZYTECH, Lisbon, Portugal) and quantified in a NanoDrop ND-1000 spectrophotometer at 260 nm. RNA purity was assessed by analysis of 260/230 and 260/280 absorption ratios. The cDNA was reverse-transcribed using NZY First Strand cDNA Synthesis Kit (NZYTECH), beginning with 2 µg of total RNA. qRT-PCR was performed, in duplicate for each sample, using NZYSpeedy qPCR Green Master Mix (2×) (NZYTECH) on CFX96 Real-Time PCR Detection System (Bio-Rad, Hercules, CA, USA).
Gene expression changes were analysed using the built-in CFX Manager software which enables the analysis of the results by the Pfaffl method, a variation of the ΔΔCT method corrected for gene-specific efficiencies[53]. The results were normalized using Hprt1 as housekeeping gene.
Total cell extracts were prepared and western blot was performed as described before[54]. Briefly, total (25 µg for Raw 264.7 cell line and 20 µg for human chondrocytes) proteins were separated by SDS-PAGE under reducing conditions and electrotransferred onto PVDF membranes. […] Immune complexes were detected with Enhanced ChemiFluorescence reagent (GE Healthcare) in the imaging system Thyphoon FLA 9000 (GE Healthcare). The membranes were reprobed with a mouse monoclonal anti-β-Tubulin I antibody (Sigma-Aldrich Co.), diluted at 1:20000, as a loading control, for 1 h at room temperature. Image analysis was performed with TotalLab TL120 software (Nonlinear Dynamics Ltd).

IL-1β = assay: LPS-induced IL-1β mRNA, pro-IL-1β protein and secreted IL-1β in Raw 264.7; type: cell-based, mouse; settings: for LPS-induced IL-1β mRNA levels: LPS 1 µg/mL 6 h, 1 h pre-treatment with 666 µM; for mature IL-1β secreted into the cell culture medium / pro-IL-1β protein levels: LPS 1 µg/mL 18 h, relative to LPS alone; for mature IL-1β secreted into the cell culture medium: 666 µM, ELISA
Method: Upon transcription, this mRNA is translated into a precursor protein (pro-IL-1β) that undergoes partial hydrolysis by a proteolytic complex, the inflammasome, being converted into the mature IL-1β protein which is then secreted.
Figure 3 (S)-(+)-carvone (4) and (R)-(−)-carvone (5) decrease LPS-induced IL-1β mRNA (a) and protein (b,c) levels in the Raw 264.7 cell line. Macrophage cultures were treated with 1 µg/mL LPS, for 6 h (a) or 18 h (b,c), following pre-treatment for 1 h with 666 µM of each test compound (a and c) or with the concentrations indicated in (b). Control cells (Ctrl) were treated with vehicle (0.1% DMSO) in the absence of LPS. Each column represents the mean ± SEM of, at least, three independent experiments. The blots shown are representative of, at least, three independent experiments and are cropped for clarity and conciseness. The corresponding full-length blots are presented in Fig. S3. *p < 0.05, **p < 0.01 and ****p < 0.0001 relative to LPS-treated cells. ^##p < 0.01, ^###p < 0.001 and ^####p < 0.0001 relative to the Ctrl. ^§p < 0.05 between the conditions indicated. MW: molecular weight marker.
(§3) This vehicle was used as control. Lipopolysaccharides from Escherichia coli 026:B6 (LPS; Sigma-Aldrich Co.) were dissolved in phosphate buffered saline (PBS). Recombinant human interleukin-1β (IL-1β; Peprotech, Rocky Hill, NJ, USA) was dissolved in PBS containing 0.1% Bovine Serum Albumin.
Total RNA extraction and qRT-PCR were performed as described before. Briefly, total RNA was extracted using the NZYol (NZYTECH, Lisbon, Portugal) and quantified in a NanoDrop ND-1000 spectrophotometer at 260 nm. RNA purity was assessed by analysis of 260/230 and 260/280 absorption ratios. The cDNA was reverse-transcribed using NZY First Strand cDNA Synthesis Kit (NZYTECH), beginning with 2 µg of total RNA. qRT-PCR was performed, in duplicate for each sample, using NZYSpeedy qPCR Green Master Mix (2×) (NZYTECH) on CFX96 Real-Time PCR Detection System (Bio-Rad, Hercules, CA, USA).
Gene expression changes were analysed using the built-in CFX Manager software which enables the analysis of the results by the Pfaffl method, a variation of the ΔΔCT method corrected for gene-specific efficiencies. The results were normalized using Hprt1 as housekeeping gene.
(§4) Total cell extracts were prepared and western blot was performed as described before. Briefly, total (25 µg for Raw 264.7 cell line and 20 µg for human chondrocytes) proteins were separated by SDS-PAGE under reducing conditions and electrotransferred onto PVDF membranes. […] Immune complexes were detected with Enhanced ChemiFluorescence reagent (GE Healthcare) in the imaging system Thyphoon FLA 9000 (GE Healthcare). The membranes were reprobed with a mouse monoclonal anti-β-Tubulin I antibody (Sigma-Aldrich Co.), diluted at 1:20000, as a loading control, for 1 h at room temperature. Image analysis was performed with TotalLab TL120 software (Nonlinear Dynamics Ltd).
The concentration of IL-1β in the culture supernatants was measured using the Mouse IL-1β ELISA kit (ThermoScientific, Rockford, USA), following the manufacturer’s instructions.

NOS2 [2] = assay: NO production and NOS2 protein levels pre-induced by LPS (compound added after LPS removal) in Raw 264.7; type: cell-based, mouse; settings: LPS 1 μg/mL 8 h, LPS removed, then 666 µM compound for 18 h
Method: (§5) Each column represents the mean ± SEM of, at least, three independent experiments. The blots shown are representative of, at least, three independent experiments and are cropped for clarity and conciseness.
(§6) NO production was measured as the amount of nitrite accumulated in the culture supernatants using the Griess reaction which is based in the reaction of nitrite with sulfanilamide under acidic conditions, yielding a diazonium ion that couples to N-(1-napthtyl)ethylenediamine dihydrochloride to form a water-soluble red-violet azo dye that absorbs at 550 nm[51]. Briefly, equal volumes of culture supernatants and reagents [equal volumes of 1% (w/v) sulphanilamide in 5% (v/v) phosphoric acid and 0.1% (w/v) N-(1-napthtyl)ethylenediamine dihydrochloride] were mixed and incubated for 10 min, at room temperature, in the dark. The concentration of nitrite accumulated in the culture supernatants was calculated by interpolation of the absorbance of each sample, read in Biotek Synergy HT plate reader (Biotek), in a standard curve of sodium nitrite.
as §4

[3] = test system: LPS-induced NO production in Raw 264.7 macrophages; assay: Primary screening: LPS-induced NO production (nitrite, Griess reaction) in Raw 264.7 macrophages; type: cell-based, mouse; settings: for IC50: Mus musculus, RAW264.7, Raw 264.7 cell line; for Decrease (inhibition) of LPS-induced NO production: at the highest concentration tested; for Decrease (inhibition) of LPS-induced NO production / % inhibition of LPS-induced NO production / Effect on LPS-induced NO production / anti-inflammatory activity (in words): Raw 264.7; for % inhibition of LPS-induced NO production: at the highest non-cytotoxic concentration tested, nitrite in supernatants; for Effect on LPS-induced NO production / anti-inflammatory activity (in words): non-cytotoxic concentrations
Method: as §1, §3, §6

human chondrocytes [4] = assay: Cell viability of IL-1β-treated primary human chondrocytes (resazurin); type: cell-based; settings: 666 or 1331 µM; IL-1β 10 ng/mL 24 h
Method: as §5, §3, §2

human chondrocytes [5] = assay: IL-1β-induced NOS2 protein, NO production and pro-IL-1β protein in primary human chondrocytes; type: cell-based; settings: IL-1β 10 ng/mL 24 h
Method: The cells were treated with 10 ng/mL IL-1β for 24 h (a, b, c and d), following pre-treatment for 1 h with 666 or 1331 µM of (S)-(+)-carvone (4). As a positive control, the cells were similarly treated with 5 μM Bay 11-7082 (b and c). Control cells (Ctrl) were treated with the vehicle (0.1% DMSO) in the absence of IL-1β. Each column represents the mean ± SEM of, at least, three independent experiments. The blots shown are representative of, at least, three independent experiments and are cropped for clarity and conciseness.
Briefly, cartilage shavings underwent sequential digestion with Pronase (Roche, Indianapolis, IN, USA) and collagenase A (Roche, Indianapolis, IN, USA). To avoid chondrocyte dedifferentiation, non-proliferating monolayer cultures were setup by plating 1× 10^6 chondrocytes/mL in HAM: F12 medium containing 3% antibiotics and 5% FBS and allowed to recover for 24 h at 37 °C in a humidified atmosphere with 5% CO2. Prior to any treatments, chondrocytes were serum-starved overnight and thereafter maintained in culture medium without FBS.
This vehicle was used as control. […] Recombinant human interleukin-1β (IL-1β; Peprotech, Rocky Hill, NJ, USA) was dissolved in PBS containing 0.1% Bovine Serum Albumin.
Total cell extracts were prepared and western blot was performed as described before[54]. […] Immune complexes were detected with Enhanced ChemiFluorescence reagent (GE Healthcare) in the imaging system Thyphoon FLA 9000 (GE Healthcare). The membranes were reprobed with a mouse monoclonal anti-β-Tubulin I antibody (Sigma-Aldrich Co.), diluted at 1:20000, as a loading control, for 1 h at room temperature. Image analysis was performed with TotalLab TL120 software (Nonlinear Dynamics Ltd).

human chondrocytes [6] = test system: human chondrocytes; parameters: method as in PMID 25622554; settings: limonene up to 200 μg/mL, β-myrcene up to 50 μg/mL; cited from earlier work
Raw 264.7 cell line = test system: Raw 264.7 cell line; parameters: method as in PMID 20625233, PMID 23541436; settings: concentrations much higher than in the current study; cited from earlier work
[7] = carvone 666 or 1331 µM, Bay 11-7082 5 µM

SMILES | Highest non-cytotoxic concentration tested (Raw 264.7 cells) | LPS-induced NOS2 mRNA levels (NOS2 [1]) | LPS-induced NOS2 protein levels (NOS2 [1]) | LPS-induced IL-1β mRNA levels (IL-1β) | mature IL-1β secreted into the cell culture medium (IL-1β) | pro-IL-1β protein levels (IL-1β) | Decrease of NO production (NOS2 [2]) | Reduction of NOS2 protein levels (NOS2 [2]) | IC50 [3] | Decrease (inhibition) of LPS-induced NO production [3] | % inhibition of LPS-induced NO production [3] | Cell viability relative to cells treated with IL-1β alone (human chondrocytes [4]) | pro-IL-1β protein levels (human chondrocytes [5]; 666 or 1331 µM) | IL-1β-induced NO production (human chondrocytes [5]; [7]) | IL-1β-induced NOS2 protein levels (human chondrocytes [5]; [7]) | Anti-inflammatory effects (human chondrocytes [6]) | Anti-inflammatory effects (Raw 264.7 cell line) | Effect on LPS-induced NO production / anti-inflammatory activity (in words) [3] | Effect on LPS-induced NO production / anti-inflammatory activity (in words) ([3]; listed as 16)
C=C(C)[C@@H]1CC=C(C)C(=O)C1 [(R)-(−)-carvone (5), (R)-(−)-carvone] | 666 µM and 100 µg/mL | significantly reduced | significantly reduced | significantly reduced | significantly decreased | significantly decreased | approximately 30% | approximately 60% | 123 µM and 18.5 µg/mL | greater than 30% | 71.50 ± 1.74 % ± SEM |  |  |  |  |  |  |  | 
C=C(C)[C@H]1CC=C(C)C(=O)C1 [(S)-(+)-carvone (4), (S)-(+)-carvone] | 666 µM and 100 µg/mL | significantly reduced | significantly reduced | significantly reduced | significantly decreased | significantly decreased | approximately 30% | approximately 60% | 110 µM and 16.5 µg/mL | greater than 30% | 68.73 ± 1.55 % ± SEM | not to affect cell viability | significantly decreased pro-IL-1β protein levels in a concentration-dependent manner | significantly decreased | significantly decreased |  |  |  | 
C=C(C)[C@H]1CC=C(C)CC1 [limonene] |  |  |  |  |  |  |  |  |  |  |  |  |  |  |  | Significant anti-inflammatory effects | Significant anti-inflammatory effects |  | 
C=CC(=C)CCC=C(C)C [β-myrcene (16), β-myrcene] | 183 µM and 25 µg/mL |  |  |  |  |  |  |  |  |  | 16.48 ± 17.00 % ± SEM |  |  |  |  | Significant anti-inflammatory effects | Significant anti-inflammatory effects | showed no activity | no effect; also recorded: Neither the more rigid (17–19), nor the more flexible (16) of these four compounds showed any activity

Source: paper PMC7190660, “Standardised comparison of limonene-derived monoterpenes identifies structural determinants of anti-inflammatory activity” (Scientific Reports, 2020)
